Measured values reported in ChEMBL document CHEMBL4428074, “The discovery of 2,5-isomers of triazole-pyrrolopyrimidine as selective Janus kinase 2 (JAK2) inhibitors versus JAK1 and JAK3” (Bioorg Med Chem, 2016).

Assays:
[1] = tested on: HEL 92.1.7; assay: cells; assay type: functional; conditions: Homo sapiens, HEL 92.1.7, 72 h
Description: Antiproliferative activity against HEL 92.1.7 cells assessed as viable cells at 10 uM measured after 3 days by WST-1 assay

[2] = target: T1, Tyrosine-protein kinase JAK3 (Homo sapiens, UniProt P52333)
T1 sequence (P52333 whole entry): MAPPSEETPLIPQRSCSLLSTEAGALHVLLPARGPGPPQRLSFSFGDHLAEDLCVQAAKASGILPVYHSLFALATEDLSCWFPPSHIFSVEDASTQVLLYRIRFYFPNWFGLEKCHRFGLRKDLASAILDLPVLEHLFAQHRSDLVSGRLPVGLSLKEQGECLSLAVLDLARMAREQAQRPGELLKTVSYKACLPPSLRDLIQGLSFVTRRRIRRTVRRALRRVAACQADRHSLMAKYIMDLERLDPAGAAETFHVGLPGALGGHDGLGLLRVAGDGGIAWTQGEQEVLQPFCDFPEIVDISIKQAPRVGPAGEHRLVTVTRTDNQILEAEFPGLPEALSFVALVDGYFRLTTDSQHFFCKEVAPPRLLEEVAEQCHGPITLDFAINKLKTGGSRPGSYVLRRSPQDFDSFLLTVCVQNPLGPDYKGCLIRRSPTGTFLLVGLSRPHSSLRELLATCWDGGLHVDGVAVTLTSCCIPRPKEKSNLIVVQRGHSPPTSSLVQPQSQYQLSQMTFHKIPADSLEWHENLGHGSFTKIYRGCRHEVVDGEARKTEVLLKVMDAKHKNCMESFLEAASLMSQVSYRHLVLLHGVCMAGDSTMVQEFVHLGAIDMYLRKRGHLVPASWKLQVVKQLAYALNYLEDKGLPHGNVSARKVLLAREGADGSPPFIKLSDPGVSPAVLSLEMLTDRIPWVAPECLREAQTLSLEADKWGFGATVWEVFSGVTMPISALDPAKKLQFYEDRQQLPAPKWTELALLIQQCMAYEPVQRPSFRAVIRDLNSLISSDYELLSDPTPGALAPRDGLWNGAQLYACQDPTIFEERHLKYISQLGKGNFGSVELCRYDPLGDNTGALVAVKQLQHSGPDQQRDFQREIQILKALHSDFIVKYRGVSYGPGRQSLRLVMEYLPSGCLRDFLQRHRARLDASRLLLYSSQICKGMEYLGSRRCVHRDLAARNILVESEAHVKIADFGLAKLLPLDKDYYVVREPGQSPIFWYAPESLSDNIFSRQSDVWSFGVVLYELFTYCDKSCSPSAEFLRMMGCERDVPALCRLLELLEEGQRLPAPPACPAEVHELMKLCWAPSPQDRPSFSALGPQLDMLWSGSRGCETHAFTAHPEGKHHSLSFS
Description: Inhibition of JAK3 (unknown origin) measured after 1 hr in presence of ATP by TR-FRET assay

[3] = target: Tyrosine-protein kinase JAK1 (Homo sapiens, UniProt P23458)
Sequence of Tyrosine-protein kinase JAK1 (P23458 whole entry): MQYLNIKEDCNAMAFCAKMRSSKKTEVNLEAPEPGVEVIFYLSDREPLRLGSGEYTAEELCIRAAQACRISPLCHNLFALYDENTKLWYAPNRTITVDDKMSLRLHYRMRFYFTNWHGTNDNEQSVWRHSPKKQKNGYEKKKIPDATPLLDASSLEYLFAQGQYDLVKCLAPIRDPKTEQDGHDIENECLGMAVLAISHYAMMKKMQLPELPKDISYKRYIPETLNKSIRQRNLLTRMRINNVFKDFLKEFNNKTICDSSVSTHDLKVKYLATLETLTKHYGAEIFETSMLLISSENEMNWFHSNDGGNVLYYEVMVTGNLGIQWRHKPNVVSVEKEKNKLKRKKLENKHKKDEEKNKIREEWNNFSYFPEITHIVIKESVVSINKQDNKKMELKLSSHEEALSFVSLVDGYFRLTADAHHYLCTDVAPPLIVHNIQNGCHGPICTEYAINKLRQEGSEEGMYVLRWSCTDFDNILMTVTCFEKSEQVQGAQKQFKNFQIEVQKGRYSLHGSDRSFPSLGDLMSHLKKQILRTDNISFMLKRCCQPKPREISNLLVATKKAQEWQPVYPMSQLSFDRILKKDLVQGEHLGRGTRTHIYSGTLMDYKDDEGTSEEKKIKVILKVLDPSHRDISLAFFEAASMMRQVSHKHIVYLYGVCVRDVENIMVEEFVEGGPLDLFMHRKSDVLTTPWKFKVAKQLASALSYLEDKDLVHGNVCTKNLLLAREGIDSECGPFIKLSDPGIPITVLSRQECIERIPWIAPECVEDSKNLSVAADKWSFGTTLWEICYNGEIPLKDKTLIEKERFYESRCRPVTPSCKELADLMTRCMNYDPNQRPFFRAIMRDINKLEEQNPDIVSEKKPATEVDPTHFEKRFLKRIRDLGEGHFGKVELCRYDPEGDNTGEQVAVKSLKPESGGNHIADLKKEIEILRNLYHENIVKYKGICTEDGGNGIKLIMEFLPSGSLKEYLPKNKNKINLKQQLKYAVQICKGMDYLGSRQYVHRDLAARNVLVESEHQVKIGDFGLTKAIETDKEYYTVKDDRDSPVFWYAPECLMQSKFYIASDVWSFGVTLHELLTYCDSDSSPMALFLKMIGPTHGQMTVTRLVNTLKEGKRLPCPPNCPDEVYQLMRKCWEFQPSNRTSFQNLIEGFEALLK

[4] = tested on: HEL 92.1.7; assay type: functional, Homo sapiens
Description: Antiproliferative activity against HEL 92.1.7 cells assessed as inhibition of cell growth

[5] = tested on: HEL 92.1.7; assay: cells; conditions: Homo sapiens, HEL 92.1.7, 72 h
Description: Antiproliferative activity against HEL 92.1.7 cells assessed as viable cells measured after 3 days by WST-1 assay

[6] = tested on: HCC827; assay type: functional, Homo sapiens; conditions: at 30 µM
Description: Cytotoxicity against wild-type human HCC827 cells at 30 uM measured after 72 hrs by MTT assay

Row | SMILES | IC50 [3] [nM] | inhibition at 10 µM [1] [%] | further results
1 | Cc1nn(CC2CCC2)nc1-c1ncnc2[nH]ccc12 |  | 49.8 | 
2 | C=C(C)Cn1nc(C)c(-c2ncnc3[nH]ccc23)n1 | 142 | 52.7 | 
3 | Cc1nn(CC2CCCC2)nc1-c1ncnc2[nH]ccc12 |  | 64.1 | 
4 | Cc1nn(CC2CC2)nc1-c1ncnc2[nH]ccc12 | 444 | 44.8 | IC50 [2]: 2440 nM
5 | N#CC[C@H](C1CCCC1)n1cc(-c2ncnc3[nH]ccc23)cn1 [RUXOLITINIB] |  |  | growth inhibition (GI) [4]: 55%; IC50 [5]: 14700 nM; inhibition (INH) [6]: 16.6%

More lines, main results first:

Row | IC50 [3] [nM] | SMILES | inhibition at 10 µM [1] [%] | further results
6 | 72 | Cc1nn(CCCC#N)nc1-c1ncnc2[nH]ccc12 | 65.3 | IC50 [2]: 1760 nM
7 | 186 | Cc1nn(CCCCCC#N)nc1-c1ncnc2[nH]ccc12 |  | 
8 | 138 | Cc1nn(CCCCC#N)nc1-c1ncnc2[nH]ccc12 | 41.3 | 
9 | 82 | Cc1nn(CCCC(F)(F)F)nc1-c1ncnc2[nH]ccc12 | 9.1 | 
